Experimental findings from PMC5857911, “Inositol pyrophosphate synthesis by diphosphoinositol pentakisphosphate kinase-1 is regulated by phosphatidylinositol(4,5)bisphosphate” (Bioscience Reports, 2018) are described below.

What all share (assay type): biochemical
In experiment [1] the target is T1, PPIP5K1 (Homo sapiens, UniProt Q6PFW1).
T1 construct: full-length human PPIP5K1
T1 sequence (Q6PFW1 1-1433): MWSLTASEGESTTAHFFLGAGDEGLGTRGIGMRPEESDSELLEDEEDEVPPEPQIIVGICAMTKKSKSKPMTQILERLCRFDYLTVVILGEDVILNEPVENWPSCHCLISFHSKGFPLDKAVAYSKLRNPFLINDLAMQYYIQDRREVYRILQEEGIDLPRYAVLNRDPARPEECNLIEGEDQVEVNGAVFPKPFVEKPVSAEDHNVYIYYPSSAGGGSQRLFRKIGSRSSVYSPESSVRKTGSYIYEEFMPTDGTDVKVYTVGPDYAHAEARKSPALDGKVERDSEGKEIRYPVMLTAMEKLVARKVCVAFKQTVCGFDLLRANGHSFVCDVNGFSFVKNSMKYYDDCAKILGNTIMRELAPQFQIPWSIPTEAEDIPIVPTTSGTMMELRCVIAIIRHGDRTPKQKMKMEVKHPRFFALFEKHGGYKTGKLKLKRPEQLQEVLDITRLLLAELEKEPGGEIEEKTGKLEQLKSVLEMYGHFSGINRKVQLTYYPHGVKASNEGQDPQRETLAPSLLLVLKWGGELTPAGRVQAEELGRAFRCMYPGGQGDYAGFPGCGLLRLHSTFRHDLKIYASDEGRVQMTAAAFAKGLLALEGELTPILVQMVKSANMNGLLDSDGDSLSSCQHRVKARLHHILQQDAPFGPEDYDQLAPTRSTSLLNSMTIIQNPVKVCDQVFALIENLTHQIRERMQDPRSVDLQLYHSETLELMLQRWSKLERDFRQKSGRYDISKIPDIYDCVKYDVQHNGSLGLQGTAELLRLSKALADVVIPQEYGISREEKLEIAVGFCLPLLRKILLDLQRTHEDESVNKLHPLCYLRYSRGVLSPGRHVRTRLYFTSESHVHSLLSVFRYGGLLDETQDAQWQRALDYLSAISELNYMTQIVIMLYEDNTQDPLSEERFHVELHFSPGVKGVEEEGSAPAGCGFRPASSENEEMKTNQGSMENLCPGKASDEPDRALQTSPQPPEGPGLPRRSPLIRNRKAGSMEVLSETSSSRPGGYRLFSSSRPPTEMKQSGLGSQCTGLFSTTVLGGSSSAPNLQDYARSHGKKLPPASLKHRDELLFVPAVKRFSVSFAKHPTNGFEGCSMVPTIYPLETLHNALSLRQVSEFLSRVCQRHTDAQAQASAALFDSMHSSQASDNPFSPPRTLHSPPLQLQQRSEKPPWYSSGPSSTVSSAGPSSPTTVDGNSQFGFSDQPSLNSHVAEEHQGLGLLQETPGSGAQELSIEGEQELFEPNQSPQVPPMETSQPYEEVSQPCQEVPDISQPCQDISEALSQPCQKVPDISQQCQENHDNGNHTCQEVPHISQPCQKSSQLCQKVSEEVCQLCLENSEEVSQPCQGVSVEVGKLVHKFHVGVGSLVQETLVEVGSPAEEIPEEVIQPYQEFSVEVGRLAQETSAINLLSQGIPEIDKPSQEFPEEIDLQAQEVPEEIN
The experiment can be described thus: kinase assay of purified recombinant enzyme with […]-[3H]InsP7, HPLC, first-order conditions.

Experiment [2] addresses T2, PPIP5K1 (Homo sapiens, UniProt Q6PFW1, R399A).
T2 construct: full-length human PPIP5K1
T2 sequence (Q6PFW1 1-1433 R399A): T1 sequence (Q6PFW1 1-1433) with R399A
As to the kind of experiment: kinase assay of purified phosphatase-compromised mutant, […] h, HPLC.

Experiment [3] addresses T1, PPIP5K1. As to the kind of experiment: InsP8 phosphatase assay with [3H]InsP8, HPLC, dose-response.
For experiment [4], the target named is T1, PPIP5K1. The experiment can be described thus: phosphatase assay of purified recombinant enzyme, […] InsP8 with [3H]InsP8, HPLC.

For orientation: IC50 means the point on the concentration scale where inhibition reaches its midpoint. Higher therefore signals a need for much substance.

Numbering of substitutions follows the chain as printed.

Regarding `O=P(O)(O)O[C@H]1[C@@H](OP(=O)(O)O)[C@H](OP(=O)(O)O)[C@@H](OP(=O)(O)OP(=O)(O)O)[C@H](OP(=O)(O)O)[C@H]1OP(=O)(O)O` [5-InsP7], in experiment [1], the “kinase assay of purified recombinant enzyme with 5-[3H]InsP7, HPLC, first-order” value is 0.07 min⁻¹. The “% / ng protein” value in experiment [2] came to 6.9 ± 0.01 % / ng protein.

Regarding `CCCCCCCC(=O)OC[C@H](COP(=O)(O)O[C@H]1[C@H](O)[C@@H](O)[C@H](OP(=O)(O)O)[C@@H](OP(=O)(O)O)[C@H]1O)OC(=O)CCCCCCC` [C8-PtdIns(3,4)P2], the IC50 in experiment [3] was ~25 µM.

Regarding `CCCCCCCC(=O)OC[C@H](COP(=O)(O)O[C@H]1[C@H](O)[C@@H](OP(=O)(O)O)[C@H](OP(=O)(O)O)[C@@H](OP(=O)(O)O)[C@H]1O)OC(=O)CCCCCCC` [C8-PtdIns(3,4,5)P3], in experiment [3], the IC50 is ~35 µM.

In the case of `CCCCCCCC(=O)OC[C@H](COP(=O)(O)O[C@@H]1[C@H](O)[C@H](O)[C@@H](OP(=O)(O)O)[C@H](OP(=O)(O)O)[C@H]1O)OC(=O)CCCCCCC` [C8-PtdIns(4,5)P2], the IC50 in experiment [3] is ~40 µM.

On to `O=P(O)(O)O[C@@H]1[C@@H](OP(=O)(O)O)[C@H](OP(=O)(O)OP(=O)(O)O)[C@@H](OP(=O)(O)O)[C@H](OP(=O)(O)OP(=O)(O)O)[C@@H]1OP(=O)(O)O` [InsP8], for which, in experiment [4], the “phosphatase assay of purified recombinant enzyme, 1 μM InsP8 with [3H]InsP8, HPL” value is 7 ± 1 nmol/mg protein/min.
